Assay: Induction period of fat with anti-oxidant
Format: physicochemical
Details: calculated on the fat; induction period established at 100° C.
Source text: Preferably the anti-oxidant is selected from the group consisting of natural and nature-identical anti-oxidants, citric acid, tartaric acid and precursors thereof. The most preferred anti-oxidant is α-tocopherol and mixtures of tocopherols, which are commercially available. Alpha-tocopherol is commonly present as a native anti-oxidant in vegetable fat. About 0.1 wt. % (calculated on the fat) of alpha-tocopherol is sufficient for increasing the induction period of the fat by a factor of 1.5 (effective concentration). The induction period is established at 100° C., using the method described in J. Am. Oil. Chem. Soc. Vol. 63, 6 (1986), 192-195.

- effective concentration (increasing the induction period of the fat by a factor of 1.5): About 0.1 wt. %
Compound: Cc1c(C)c2c(c(C)c1O)CCC(C)(CCCC(C)CCCC(C)CCCC(C)C)O2 (stereo not drawn) [alpha-tocopherol]

Source: patent publication US5783247A, “Flavoring composition containing oxidized triglyceride fats, fatty acids, of fatty acid derivatives” (Van Den Berg Foods Co., Division of Conopco, Inc., priority 1993, dated 1998)
